Data published in ChEMBL document CHEMBL6071148, “Synthesis and biological evaluation of novel 3,6- amide and thioamide substituted- 2,3,4,9-tetrahydro-1H-carbazoles for anti-cancer activity” (Eur J Med Chem, 2024).
The source made the active and inactive calls. The calls are words filed in the database; no cut-off is given here.

How the values were obtained:
MCF7 [1] = assay: Cytotoxicity against human MCF7 cells assessed as inhibition of cell proliferation incubated for 72 hrs by MTT assay; assay type: functional, cell-based; details: MCF7, 72 h
A549 [2] = assay: Cytotoxicity against human A549 cells assessed as inhibition of cell proliferation incubated for 72 hrs by MTT assay; assay type: functional, cell-based; details: A549, 72 h
HCT-116 [3] = assay: Cytotoxicity against human HCT-116 cells assessed as inhibition of cell proliferation incubated for 72 hrs by MTT assay; assay type: functional, cell-based; details: HCT-116, 72 h
[4] = Cytotoxicity against human MRC5 cells assessed as inhibition of cell proliferation incubated for 72 hrs by MTT assay; assay type: toxicity, cell-based
A549 [5] = assay: Induction of cell cycle arrest in human A549 cells assessed as accumulation of cells at G1 phase at IC50 incubated for 24 hrs by PI staining based flow cytometric analysis (reference value: 37.40 +/- 2.40%); assay type: functional
A549 [6] = assay: Induction of cell cycle arrest in human A549 cells assessed as accumulation of cells at G2 phase at IC50 incubated for 24 hrs by PI staining based flow cytometric analysis (reference value: 23.45 +/- 1.62%); assay type: functional
A549 [7] = assay: Induction of cell cycle arrest in human A549 cells assessed as accumulation of cells at G1 phase at IC50 incubated for 48 hrs by PI staining based flow cytometric analysis (reference value: 53.5 +/- 4.01%); assay type: functional
A549 [8] = assay: Induction of cell cycle arrest in human A549 cells assessed as accumulation of cells at G2 phase at IC50 incubated for 48 hrs by PI staining based flow cytometric analysis (reference value: 38.15 +/- 1.80%); assay type: functional
MCF7 [9] = assay: Induction of cell cycle arrest in human MCF7 cells assessed as accumulation of cells at G1 phase at IC50 incubated for 24 hrs by PI staining based flow cytometric analysis relative to control; assay type: functional
MCF7 [10] = assay: Induction of cell cycle arrest in human MCF7 cells assessed as accumulation of cells at S phase at IC50 incubated for 24 hrs by PI staining based flow cytometric analysis relative to control; assay type: functional
MCF7 [11] = assay: Induction of cell cycle arrest in human MCF7 cells assessed as accumulation of cells at G2 phase at IC50 incubated for 24 hrs by PI staining based flow cytometric analysis relative to control; assay type: functional
HCT-116 [12] = assay: Induction of cell cycle arrest in human HCT-116 cells assessed as accumulation of cells at G2 phase at IC50 incubated for 24 hrs by PI staining based flow cytometric analysis relative to control; assay type: functional
HCT-116 [13] = assay: Induction of cell cycle arrest in human HCT-116 cells at IC50 incubated for 48 hrs by PI staining based flow cytometric analysis; assay type: functional
MCF7 [14] = assay: Induction of DNA damage in human MCF7 cells assessed as gammaH2AX positive cells at IC50 incubated for 48 hrs by PI staining based flow cytometric analysis (reference value: 7.58 +/- 1.23%); assay type: functional
HCT-116 [15] = assay: Induction of DNA damage in human HCT-116 cells assessed as gammaH2AX positive cells at IC50 incubated for 48 hrs by PI staining based flow cytometric analysis (reference value: 6.24 +/- 1.94%); assay type: functional
A549 [16] = assay: Induction of DNA damage in human A549 cells assessed as gammaH2AX positive cells at IC50 incubated for 48 hrs by PI staining based flow cytometric analysis (reference value: 4.90 +/- 0.50%); assay type: functional
A549 [17] = assay: Induction of apoptosis in human A549 cells assessed as apoptotic rate at IC50 incubated for 24 hrs by Annexin-V and 7-AAD staining based flow cytometric analysis (reference value: 4.56 +/- 0.81%); assay type: functional
A549 [18] = assay: Induction of apoptosis in human A549 cells assessed as apoptotic rate at IC50 incubated for 48 hrs by Annexin-V and 7-AAD staining based flow cytometric analysis (reference value: 6.56 +/- 1.17%); assay type: functional
HCT-116 [19] = assay: Induction of apoptosis in human HCT-116 cells assessed as increase in apoptotic cells incubated for 24 hrs by Annexin-V and 7-AAD staining based flow cytometric analysis (reference value: 8.10 +/- 2.16%); assay type: functional
HCT-116 [20] = assay: Induction of apoptosis in human HCT-116 cells assessed as increase in apoptotic cells incubated for 48 hrs by Annexin-V and 7-AAD staining based flow cytometric analysis (reference value: 6.82 +/- 1.05%); assay type: functional
MCF7 [21] = assay: Induction of apoptosis in human MCF7 cells assessed as increase in apoptotic cells incubated for 24 hrs by Annexin-V and 7-AAD staining based flow cytometric analysis (reference value: 5.70 +/- 1.56%); assay type: functional
MCF7 [22] = assay: Induction of apoptosis in human MCF7 cells assessed as increase in apoptotic cells incubated for 48 hrs by Annexin-V and 7-AAD staining based flow cytometric analysis (reference value: 7.53 +/- 1.16%); assay type: functional
Human papillomavirus = assay: Antiviral activity against Human papillomavirus; assay type: functional, organism-based

CC(=O)Nc1ccc2[nH]c3c(c2c1)CC(NC(=O)c1ccc(C)s1)CC3 (stereo unspecified)
IC50 (MCF7 [1]): > 50000 nM
IC50 (A549 [2]): > 50000 nM
IC50 (HCT-116 [3]): > 50000 nM
IC50 at 72 h [4]: > 50000 nM

O=C1c2c(O)ccc(O)c2C(=O)c2c(NCCNCCO)ccc(NCCNCCO)c21 [MITOXANTRONE]
IC50 (MCF7 [1]): 18 nM
IC50 (A549 [2]): 164 nM
IC50 (HCT-116 [3]): 127 nM
IC50 at 72 h [4]: 517 nM
Activity (A549 [5]): 34.62%
Activity (A549 [6]): 20.2%
Activity (A549 [7]): 48.61%
Activity (A549 [8]): 29.8%
Activity (MCF7 [9]): 44.4%
Activity (MCF7 [10]): 17.9%
Activity (MCF7 [11]): 33.2%
Activity (HCT-116 [12]): 26.3%
Activity (HCT-116 [13]): Active
Activity (MCF7 [14]): 23.01%
Activity (HCT-116 [15]): 32.47%
Activity (A549 [16]): 14.22%
Activity (A549 [17]): 30.26%
Activity (A549 [18]): 32.27%
Activity (HCT-116 [19]): 32.01%
Activity (HCT-116 [20]): 31.1%
Activity (MCF7 [21]): 11.55%
Activity (MCF7 [22]): 67.63%

CC(=O)Nc1ccc2[nH]c3c(c2c1)CC(NC(=O)c1ccccc1)CC3 (stereo unspecified)
IC50 (MCF7 [1]): > 50000 nM
IC50 (A549 [2]): > 50000 nM
IC50 (HCT-116 [3]): > 50000 nM
IC50 at 72 h [4]: > 50000 nM

O=C(N[C@@H]1CCCc2c1[nH]c1ccc(Cl)cc21)c1ccccn1
IC50 (Human papillomavirus): 5 nM
